Reference: the NIST ThermoML archive (doi:10.1016/j.jct.2009.03.009)

What was measured:
[1] = xn = mol fraction of the nth substance listed; conditions: 313.15 K, 101 kPa, Liquid; for speed of sound: Sing-around technique in a fixed-path interferometer; for mass density: Vibrating tube method
[2] = refractive index (Na D-line) (dimensionless); xn = mol fraction of the nth substance listed; conditions: 313.15 K, 101 kPa, Liquid, Standard Abbe refractometry

CCCCCC [hexane] + Cc1ccccc1
Conditions	mass density, [1] [kg/m3]	refractive index, [2]	speed of sound, [1] [m/s]
x1 = 0.1032	822.9	1.47028	1208.5
x1 = 0.198	800.5	1.4571	1180.8
x1 = 0.2997	777.5	1.44367	1153.5
x1 = 0.4027	755.1	1.43045	1127.5
x1 = 0.5005	734.6	1.41844	1104.6
x1 = 0.5998	714.7	1.40685	1083.1
x1 = 0.6987	695.5	1.3956	1063.3
x1 = 0.7984	677	1.38476	1044.5
x1 = 0.9042	658.1	1.37387	1026.3
x1 = 1	641.4	1.36411	1010.3

CCCCCC [hexane] + c1ccccc1
x1 = 1
Conditions	mass density [kg/m3]	refractive index	speed of sound [m/s]
[1]	641.4	–	1010.3
[2]	–	1.36411	–

CCCCCCCCC [nonane] + CCc1ccccc1
Conditions	mass density, [1] [kg/m3]	refractive index, [2]	speed of sound, [1] [m/s]
x1 = 0.0527	837.7	1.47759	1245.4
x1 = 0.1043	827.1	1.47111	1234.9
x1 = 0.2032	808.1	1.45968	1217.6
x1 = 0.3009	791	1.44884	1203.2
x1 = 0.4018	774.9	1.43899	1190.7
x1 = 0.5009	760.3	1.43055	1180.1
x1 = 0.6003	746.9	1.42241	1171.2
x1 = 0.7012	734.4	1.41482	1163.5
x1 = 0.8044	722.4	1.40792	1156.7
x1 = 0.9026	712	1.40178	1151.1
x1 = 0.9519	707	1.39883	1148.8
x1 = 1	702.2	1.39609	1146.4

CCCCCCCCC [nonane] + Cc1ccccc1
Conditions	mass density, [1] [kg/m3]	refractive index, [2]	speed of sound, [1] [m/s]
x1 = 0.1045	823.2	1.4692	1217.6
x1 = 0.2019	802.9	1.45691	1200.3
x1 = 0.3002	785	1.44571	1187
x1 = 0.4021	768.7	1.43571	1176
x1 = 0.502	754.5	1.42674	1167.7
x1 = 0.601	741.9	1.41934	1161.1
x1 = 0.696	731	1.41289	1156.2
x1 = 0.8032	719.9	1.40639	1151.8
x1 = 0.9022	710.6	1.40097	1148.9
x1 = 0.9501	706.4	1.3985	1147.7
x1 = 1	702.2	1.39609	1146.4

CCCCCCCCC [nonane] + c1ccccc1
Conditions	mass density, [1] [kg/m3]	refractive index, [2]	speed of sound, [1] [m/s]
x1 = 0.0535	839.7	1.47693	1212.1
x1 = 0.1025	825.4	1.46801	1199
x1 = 0.2013	800.8	1.45327	1179.5
x1 = 0.3006	780.6	1.44079	1166.1
x1 = 0.3997	763.8	1.43104	1157.2
x1 = 0.5	749.5	1.42229	1151.4
x1 = 0.5992	737.3	1.41549	1147.7
x1 = 0.7052	726.2	1.40945	1145.9
x1 = 0.8034	717.2	1.40436	1145.2
x1 = 0.9018	709.3	1.3999	1145.6
x1 = 0.9499	705.7	1.39796	1145.9
x1 = 1	702.2	1.39609	1146.4

CCCCCCCC [octane] + CCc1ccccc1
x1 = 1
Conditions	mass density [kg/m3]	refractive index	speed of sound [m/s]
[1]	686.3	–	1110.6
[2]	–	1.38769	–

CCCCCCCC [octane] + Cc1ccccc1
Conditions	mass density, [1] [kg/m3]	refractive index, [2]	speed of sound, [1] [m/s]
x1 = 0.0542	834.6	1.47708	1226.2
x1 = 0.1022	823.4	1.46982	1214.8
x1 = 0.2014	802	1.45667	1194.1
x1 = 0.3037	782	1.44463	1176.2
x1 = 0.3965	765.5	1.43362	1162.3
x1 = 0.4983	749.1	1.42473	1149.7
x1 = 0.5986	734.3	1.41567	1139.1
x1 = 0.7016	720.5	1.4075	1130
x1 = 0.8007	708.4	1.40046	1122.5
x1 = 0.902	696.6	1.39376	1116.1
x1 = 0.9493	691.6	1.39079	1113.1
x1 = 1	686.3	1.38769	1110.6

CCCCCCCC [octane] + c1ccccc1
Conditions	mass density, [1] [kg/m3]	refractive index, [2]	speed of sound, [1] [m/s]
x1 = 0.0541	839.6	1.4762	1210.5
x1 = 0.1014	825.5	1.46817	1196.3
x1 = 0.202	799.3	1.45259	1172.2
x1 = 0.3022	777.2	1.4384	1154.3
x1 = 0.404	758.4	1.42757	1140.9
x1 = 0.5023	742.2	1.41799	1131
x1 = 0.6011	728.3	1.41072	1123.7
x1 = 0.7087	714.9	1.4035	1118
x1 = 0.8051	704.4	1.3977	1114.4
x1 = 0.9015	695	1.39253	1112.1
x1 = 0.9514	690.5	1.39004	1111.2
x1 = 1	686.3	1.38769	1110.6

Cc1ccccc1 [toluene] + CCCCCC
x2 = 0
Conditions	mass density [kg/m3]	refractive index	speed of sound [m/s]
[1]	848	–	1240.7
[2]	–	1.48464	–
